In PubChem BioAssay (NCI) one finds TGI and GI50 data, which are given here for nine compounds.

Where “and” joins values, the source holds several entries; their conditions need not be identical. Equal values may be shown once.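 Interpolation was linear, between the two tested concentrations surrounding the appropriate level; five concentrations were tested over 48 hours in 96-well plates. At the GI50, growth is halved. The concentration for full growth arrest is given as TGI.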

Holding throughout (assay): NCI anticancer screen, dose series, 48 h
Assay [1] relates to HOP-62 NSCLC.
For assay [2], the system named is SNB-19 CNS.
Assay [3] has as its system A498 renal.
Assay [4] deals with NCI-H23 lung.
Assay [5] deals with DU-145 prostate.
The subject of assay [6] is HCT-15 colon.
Assay [7] deals with RPMI-8226 leukemia.
Assay [8] concerns NCI-H460 lung.
Assay [9] has as its system MDA-MB-435.
Assay [10] deals with OVCAR-8 ovarian.

In the case of `CC(=O)Nc1ccccc1C=C1c2ccccc2-c2ccccc21`, the TGI in assay [1] is 42.9 µM; in assay [2], 45.8 µM; in assay [3], more than 100 µM; in [4], more than 100 µM; in assay [5] it was more than 100 µM; in assay [6], more than 100 µM. The TGI is more than 100 µM in [7], more than 100 µM in assay [8], more than 100 µM in [9] and 47.4 µM in [10].

For `Cc1nn(-c2ccccc2)c2c1CC(=O)Nc1ccccc1-2`, the GI50 in assay [1] is 0.384 µM; in [3], 0.027 µM; in assay [4], 0.357 µM; in assay [5], 0.355 µM; in assay [6] it was 0.145 µM; in [7], 0.0826 µM. Also, the GI50 in assay [8] is 0.381 µM. Further, the TGI in [1] was more than 100 µM; in assay [4], more than 100 µM; in assay [5], more than 100 µM; in assay [6] it was more than 100 µM; in [7], 0.456 µM; in assay [8], more than 100 µM. In assay [9], the TGI is 0.602 µM.

Turning to `C[C@H]1[C@H](C)CC[C@]2(C(=O)N3CCN(C)CC3)CC[C@]3(C)C(=CC[C@@H]4[C@@]5(C)C/C(=C/c6cccnc6)C(=O)C(C)(C)[C@@H]5CC[C@]43C)[C@H]12`, the GI50 in [1] is 1.58 µM; in [2], 0.956 µM; in assay [3] it was 1.52 µM; in [4], 1.57 µM; in assay [5], 1.29 µM; in [6], 0.96 µM. The GI50 in [7] was 1.49 µM; in assay [8], 0.891 µM; in [9] it was 1.13 µM. Besides, the TGI in [1] stood at 3.11 µM; in assay [2], 2.23 µM; in [3], 2.92 µM; in [4], 3.19 µM; in assay [5] it was 2.65 µM; in assay [6] it was 2.45 µM. Also, the TGI in assay [7] turned out to be 4.15 µM; in assay [8], 2.45 µM; in [9], 2.49 µM.

Consider `COC(C(=O)C(O)C(C)O)C1Cc2cc3cc(OC4CC(OC(C)=O)C(OC5CC(O)C(OC)C(C)O5)C(C)O4)cc(O)c3c(O)c2C(=O)C1OC1CC(OC2CC(OC3CC(C)(O)C(OC(=O)C(C)C)C(C)O3)C(O)C(C)O2)C(O)C(C)O1` (stereo not given), for which the GI50 in assay [1] was 0.0795 µM and 0.0102 µM and 0.00856 µM; in [2] it was 0.0897 µM and 0.01 µM; in assay [3], 0.154 µM and 0.0248 µM; in assay [6], 0.455 µM; in assay [8], 0.0261 µM and 0.0113 µM and 0.00305 µM. Besides, the TGI was 53.9 µM and > 100 µM in assay [2]; 0.569 µM in assay [5]; 22.4 µM and 34.5 µM in assay [6]; 0.202 µM and 0.14 µM in assay [7]; 0.21 µM in assay [9].

As to `CCN(CCNc1ccc(C)c2sc3cc(Cl)ccc3c(=O)c12)CC(C)O` (stereo not given), the GI50 in assay [1] was 1.52 µM; in [2] it was 1.65 µM; in assay [3] it was 1.49 µM; in [4], 2.53 µM; in assay [5], 3.87 µM; in assay [6] it was 2.33 µM. In addition, the GI50 in assay [7] is 1.71 µM; in assay [8] it was 1.78 µM; in [9], 1.64 µM. The TGI in [1] worked out at 2.86 µM; in assay [2] it was 3.66 µM; in assay [3], 2.87 µM; in assay [4] it was 4.77 µM; in assay [5] it was 18.2 µM; in [6], 5.85 µM. Moreover, the TGI in [7] came to 3.67 µM; in [8], 3.34 µM; in assay [9], 3.27 µM.

Regarding `O=C1C=C[C@@]23C[C@@H](Nc4c(O)c5c6c(c42)=NCCC=6C=N5)SC3=C1`, the TGI was 30.6 µM in assay [2]; 25.3 µM in [3]; 7.01 µM in [4]; 30.9 µM in assay [5]; 7.94 µM in assay [6]; more than 34.6 µM in [7]. The TGI amounted to 19.8 µM in assay [8], 2.98 µM in assay [9] and 3.66 µM in assay [10]. Moreover, the GI50 in assay [3] is 9.04 µM; in [4], 2.52 µM; in assay [5], 17.1 µM; in [6], 2.85 µM; in [7], 3.13 µM; in assay [8], 7.2 µM. Moreover, the GI50 in [10] was 1.87 µM.

As to `CCN1CCN(CC(=O)Nc2nc3ccc(NCc4ccc(Cl)cc4)cc3s2)CC1`, the GI50 was 3.12 µM in [2]; 4.09 µM in [3]; 3.25 µM in [4]; 7.31 µM in assay [5]; 1.95 µM in [6]; 1.6 µM in assay [7]. Also, the GI50 in assay [8] is 2.18 µM; in [9], 1.9 µM; in assay [10] it was 4.59 µM. The TGI in assay [2] was 10.7 µM; in [3], 17 µM; in [4], more than 100 µM; in assay [5], more than 100 µM; in assay [6], 4.66 µM; in assay [7], 4.04 µM. Further, the TGI in [8] was 4.69 µM; in [9], 3.81 µM; in assay [10], more than 100 µM.

As for `CCCCCCC#Cc1ccccc1C#CCO`, the GI50 in [1] was 22.4 µM; in [2], 16.3 µM; in assay [4], 3.69 µM; in assay [5], 17.7 µM; in assay [6] it was 35.9 µM; in assay [7], 15 µM. Further, the GI50 is 32.8 µM in assay [8], 18.4 µM in [9] and 21.7 µM in assay [10]. The TGI in assay [1] is 48.3 µM; in assay [2], 31.7 µM; in [4] it was 9.74 µM; in assay [5] it was 36.3 µM; in assay [6] it was more than 100 µM; in assay [7] it was 31.4 µM. Besides, the TGI in assay [8] was more than 100 µM; in assay [9], 37.2 µM; in [10], 46.8 µM.

For `COc1ccc(-c2cc(-c3ccccc3)nc(N3CCN(CCNc4ccnc5cc(Cl)ccc45)CC3)n2)cc1`, the GI50 in assay [1] is 1.97 µM; in assay [2] it was 3.19 µM; in [3], 8.15 µM; in assay [4], 1.9 µM; in assay [5] it was 1.88 µM; in [6] it was 1.4 µM. The GI50 in assay [7] was 1.65 µM; in assay [8] it was 1.92 µM; in [9], 1.8 µM. In addition, the TGI in assay [1] came to 4.04 µM; in [2] it was 13.2 µM; in [3], 20.7 µM; in assay [4], 5.23 µM; in assay [5], 3.94 µM; in assay [6], 3.14 µM. Moreover, the TGI amounted to 4.57 µM in assay [7], 3.78 µM in assay [8] and 3.31 µM in assay [9].
